Measurements from ChEMBL document CHEMBL1201862, “PubChem BioAssay data set” (2004).
The source made the active and inactive calls.

Columns and labels:
[1] = biological target: T1, Voltage-gated N-type calcium channel alpha-1B subunit/Amyloid beta A4 precursor protein-binding family A member 1 (Homo sapiens, UniProt Q00975+Q02410); format: protein assay
[2] = biological target: Induced myeloid leukemia cell differentiation protein Mcl-1 (Homo sapiens, UniProt Q07820); format: functional
[3] = biological target: T1, Voltage-gated N-type calcium channel alpha-1B subunit/Amyloid beta A4 precursor protein-binding family A member 1; format: protein assay; remark: listed apart in the source
[4] = biological target: T1, Voltage-gated N-type calcium channel alpha-1B subunit/Amyloid beta A4 precursor protein-binding family A member 1; assay: disruptors of Mint-PDZ/N-type channel peptide interaction – biochemical, HTRF, set 2, SAR follow-up (AID 434980); format: functional
[5] = biological target: T1, Voltage-gated N-type calcium channel alpha-1B subunit/Amyloid beta A4 precursor protein-binding family A member 1; assay: disruptors of Mint-PDZ/N-type channel peptide interaction – biochemical, HTRF, SAR follow-up (AID 2489); format: functional
[6] = biological target: SUMO E1/E2 (Homo sapiens, UniProt P63279+Q9UBE0+Q9UBT2); assay: SAR analysis of SUMOylation using HTRF in an in-Vitro dose response assay. [Related pubchem assays (depositor defined):AID2006, AID2011, AID2018, AID2069, AID2658]; format: functional
[7] = Luminescence Cell-Based Dose Retest to Confirm Activators of 5'UTR Stem-Loop Driven Alpha-Synuclein mRNA Translation in H4 Neuroglioblastoma Cells. [Related pubchem assays (depositor defined):AID1813, AID1829]; format: functional
[8] = test system: BJ; assay: cytotoxicity toward BJ-TERT-LT-ST fibroblasts, dose response, cell-based, RAS-independent, luminescence (AID 1935); format: functional; conditions: Homo sapiens;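 further: BJ fibroblasts immortalized with TERT plus LT and ST oncogenes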
[9] = cytotoxicity toward DRD oncogenic fibroblasts, dose response, cell-based, non-viral oncogenic, luminescence (AID 1934); format: functional; conditions: Homo sapiens
[10] = inhibitors of SNCA 5'UTR-driven reporter translation, confirmation, H4 neuroglioma cells, luminescence (AID 1988); format: functional, cell-based
[11] = Luminescence Cell-Based Dose Confirmation HTS to Identify Inhibitors of 5'UTR Stem-Loop Driven Alpha-Synuclein mRNA Translation in H4 Neuroglioblastoma Cells. [Related pubchem assays: 1827 (Project Summary), 1813 (Primary HTS)]; format: functional
[12] = inhibitors of firefly luciferase expression or activity, dose response, H4 neuroglioma cells, luminescence (AID 1990); format: functional, cell-based
[13] = Luminescence Cell-Based Dose Response HTS to Identify Inhibitors of 5'UTR Stem-Loop Driven Prion Protein mRNA Translation in H4 Neuroglioblastoma Cells. [Related pubchem assays: 1827 (Project Summary), 1813 (Primary HTS)]; format: functional
[14] = Luminescence Cell-Based Dose HTS Response to Identify Inhibitors of 5'UTR Stem-Loop Driven Prion Protein mRNA Translation in H4-C Neuroglioblastoma Cells. [Related pubchem assays (depositor defined):AID1814, AID1827]; format: functional
[15] = Luminescence Cell-Based Dose Response HTS to Identify Inhibitors of Luciferase Translation or Activity in H4-C Neuroglioblastoma Cells. [Related pubchem assays: 1813 (Primary HTS), 1827 (Project Summary)]; format: functional
[16] = Luminescence Cell-Based Dose Response HTS to Identify Activators of 5'UTR Stem-Loop Driven Prion Protein mRNA Translation in H4-C Neuroglioblastoma Cells. [Related pubchem assays: 1829 (Project Summary), 1814 (Primary HTS)]; format: functional
[17] = test system: BJ; assay: cells; format: functional, cell-based; conditions: Homo sapiens
[18] = test system: BJ; assay: cytotoxicity toward BJ-TERT fibroblasts, dose response, cell-based, RAS-independent, luminescence (AID 1933); format: functional; conditions: Homo sapiens
[19] = Luminescence Cell-Based Dose Response HTS to Identify Activators of Luciferase Translation or Activity in H4-C Neuroglioblastoma Cells. [Related pubchem assays: 1829 (Project Summary), 1814 (Primary HTS)]; format: functional
[20] = biological target: T2, E3 ubiquitin-protein ligase XIAP (Homo sapiens, UniProt P98170); assay: XIAP antagonists, biochemical, IAP family, fluorescence polarization (AID 1018); format: functional
[21] = biological target: T2, E3 ubiquitin-protein ligase XIAP; assay: Counter Screen using XIAP-Bir3 for Chemical Antagonists of Bir1/2 domains of IAP-family anti-apoptotic proteins. [Related pubchem assays (depositor defined):AID1018, AID1449, AID1514, AID1638, AID1749, AID1750, AID488957, AID488963]
[22] = cells; format: functional
[23] = test system: Streptococcus; assay: Group A Streptococcus viability loss, dose response, counter-screen for streptokinase expression inhibitor project, luminescence, BacTiterGlo (AID 1915); format: functional, organism-based;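 further: potency for reduction of bacterial viability or growth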
[24] = test system: Vero; assay: cells; format: functional; conditions: Chlorocebus sabaeus
[25] = Vero E6 cell cytotoxicity, dose response, cytotoxicity control for non-replicating M. tuberculosis project, secondary assay (AID 492998); format: functional, VeroE6; conditions: Vero C1008
[26] = HepG2 cell cytotoxicity, dose response, cytotoxicity control for non-replicating M. tuberculosis project (AID 489018); format: functional; conditions: Mycobacterium tuberculosis
[27] = THP-1 cell cytotoxicity, dose response, cytotoxicity control for non-replicating M. tuberculosis project (AID 489025); format: functional
[28] = test system: Streptococcus sp. 'group A'; assay: growth inhibition of control SK(-) GAS strain, dose response, counter-screen for streptokinase expression inhibitor project, luminescence, kanamycin, BacTiterGlo, confirmation (AID 1900); format: functional, organism-based
[29] = test system: Vero; assay: cells; format: functional, cell-based; conditions: Chlorocebus sabaeus

T1 sequence (Q00975 whole entry): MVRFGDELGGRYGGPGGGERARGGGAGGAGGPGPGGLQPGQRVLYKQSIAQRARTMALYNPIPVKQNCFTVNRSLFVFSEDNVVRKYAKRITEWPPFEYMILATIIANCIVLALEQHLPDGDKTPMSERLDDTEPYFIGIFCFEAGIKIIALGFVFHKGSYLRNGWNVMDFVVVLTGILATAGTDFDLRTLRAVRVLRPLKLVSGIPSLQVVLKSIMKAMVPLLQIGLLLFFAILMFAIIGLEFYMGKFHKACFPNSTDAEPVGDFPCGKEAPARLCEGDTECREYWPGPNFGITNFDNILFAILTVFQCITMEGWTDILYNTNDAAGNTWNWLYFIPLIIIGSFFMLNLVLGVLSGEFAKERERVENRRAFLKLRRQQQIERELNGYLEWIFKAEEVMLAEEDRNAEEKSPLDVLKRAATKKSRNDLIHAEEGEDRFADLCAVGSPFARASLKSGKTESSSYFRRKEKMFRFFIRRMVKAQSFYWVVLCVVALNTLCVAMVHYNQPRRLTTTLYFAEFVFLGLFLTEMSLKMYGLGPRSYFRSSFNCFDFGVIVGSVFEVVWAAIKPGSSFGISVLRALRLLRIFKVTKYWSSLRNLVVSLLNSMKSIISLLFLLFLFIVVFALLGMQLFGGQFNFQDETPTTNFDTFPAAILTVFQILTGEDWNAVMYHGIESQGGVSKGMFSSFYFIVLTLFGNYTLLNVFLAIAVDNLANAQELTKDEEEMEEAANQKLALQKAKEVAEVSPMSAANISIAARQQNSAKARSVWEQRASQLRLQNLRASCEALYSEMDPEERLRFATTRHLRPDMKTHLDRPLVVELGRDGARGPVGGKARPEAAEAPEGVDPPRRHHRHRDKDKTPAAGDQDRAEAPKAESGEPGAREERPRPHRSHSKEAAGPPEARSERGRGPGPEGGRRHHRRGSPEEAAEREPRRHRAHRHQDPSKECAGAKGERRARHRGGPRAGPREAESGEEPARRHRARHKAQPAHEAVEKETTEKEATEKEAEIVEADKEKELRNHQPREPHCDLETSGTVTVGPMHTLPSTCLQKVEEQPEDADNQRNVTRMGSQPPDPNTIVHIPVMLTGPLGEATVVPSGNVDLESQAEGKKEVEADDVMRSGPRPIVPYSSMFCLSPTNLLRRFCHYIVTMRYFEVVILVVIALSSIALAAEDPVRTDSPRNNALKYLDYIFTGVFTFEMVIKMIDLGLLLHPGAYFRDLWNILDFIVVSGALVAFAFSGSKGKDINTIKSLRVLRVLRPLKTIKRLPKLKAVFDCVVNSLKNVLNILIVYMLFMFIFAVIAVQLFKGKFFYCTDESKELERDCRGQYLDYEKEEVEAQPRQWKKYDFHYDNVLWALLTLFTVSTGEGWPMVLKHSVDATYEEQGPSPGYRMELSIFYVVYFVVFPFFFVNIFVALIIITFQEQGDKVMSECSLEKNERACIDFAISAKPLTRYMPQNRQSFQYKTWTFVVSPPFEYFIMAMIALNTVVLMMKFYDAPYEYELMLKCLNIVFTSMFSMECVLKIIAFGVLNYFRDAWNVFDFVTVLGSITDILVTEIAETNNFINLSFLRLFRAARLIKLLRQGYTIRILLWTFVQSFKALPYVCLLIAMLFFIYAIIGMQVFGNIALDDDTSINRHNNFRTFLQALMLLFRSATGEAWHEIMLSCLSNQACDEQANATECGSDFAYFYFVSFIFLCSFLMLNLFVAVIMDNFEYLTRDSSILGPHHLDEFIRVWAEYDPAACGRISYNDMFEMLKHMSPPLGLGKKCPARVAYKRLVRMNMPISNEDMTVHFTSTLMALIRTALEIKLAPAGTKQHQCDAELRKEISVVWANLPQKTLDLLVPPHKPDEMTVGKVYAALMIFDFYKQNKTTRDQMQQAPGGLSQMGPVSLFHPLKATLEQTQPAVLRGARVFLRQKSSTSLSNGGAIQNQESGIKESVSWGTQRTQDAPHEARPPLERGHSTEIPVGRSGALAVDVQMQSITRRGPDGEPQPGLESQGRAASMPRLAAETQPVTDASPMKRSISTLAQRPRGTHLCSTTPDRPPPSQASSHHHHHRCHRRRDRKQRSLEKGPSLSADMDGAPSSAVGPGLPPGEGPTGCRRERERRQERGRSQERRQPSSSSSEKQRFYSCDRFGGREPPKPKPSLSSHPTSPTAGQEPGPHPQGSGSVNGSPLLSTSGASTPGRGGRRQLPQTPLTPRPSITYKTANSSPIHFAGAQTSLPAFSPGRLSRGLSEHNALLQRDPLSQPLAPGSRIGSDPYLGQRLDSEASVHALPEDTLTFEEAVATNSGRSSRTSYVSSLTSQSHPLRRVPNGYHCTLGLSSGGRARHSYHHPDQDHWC
T1 sequence (Q02410 whole entry): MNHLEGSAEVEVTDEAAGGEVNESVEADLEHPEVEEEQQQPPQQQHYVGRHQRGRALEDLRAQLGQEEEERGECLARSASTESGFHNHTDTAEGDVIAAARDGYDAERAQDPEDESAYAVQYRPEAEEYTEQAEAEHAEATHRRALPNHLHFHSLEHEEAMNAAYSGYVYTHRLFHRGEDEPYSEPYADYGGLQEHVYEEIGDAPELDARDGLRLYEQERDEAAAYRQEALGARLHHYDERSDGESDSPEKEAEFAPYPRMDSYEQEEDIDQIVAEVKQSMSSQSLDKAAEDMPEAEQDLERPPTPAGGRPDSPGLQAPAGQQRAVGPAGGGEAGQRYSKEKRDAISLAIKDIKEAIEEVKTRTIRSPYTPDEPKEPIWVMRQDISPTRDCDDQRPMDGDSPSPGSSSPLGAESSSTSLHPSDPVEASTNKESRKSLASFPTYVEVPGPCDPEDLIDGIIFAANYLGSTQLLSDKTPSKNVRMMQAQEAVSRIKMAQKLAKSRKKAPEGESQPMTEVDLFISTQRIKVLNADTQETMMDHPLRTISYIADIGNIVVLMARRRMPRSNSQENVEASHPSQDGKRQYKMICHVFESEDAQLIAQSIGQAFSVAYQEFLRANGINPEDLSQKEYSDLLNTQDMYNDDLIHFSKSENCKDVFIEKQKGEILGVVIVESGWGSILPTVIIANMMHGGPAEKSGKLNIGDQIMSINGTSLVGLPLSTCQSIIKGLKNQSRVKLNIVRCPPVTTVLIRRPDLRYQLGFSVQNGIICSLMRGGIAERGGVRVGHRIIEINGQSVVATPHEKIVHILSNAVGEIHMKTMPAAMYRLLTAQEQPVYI
T2 sequence (P98170 whole entry): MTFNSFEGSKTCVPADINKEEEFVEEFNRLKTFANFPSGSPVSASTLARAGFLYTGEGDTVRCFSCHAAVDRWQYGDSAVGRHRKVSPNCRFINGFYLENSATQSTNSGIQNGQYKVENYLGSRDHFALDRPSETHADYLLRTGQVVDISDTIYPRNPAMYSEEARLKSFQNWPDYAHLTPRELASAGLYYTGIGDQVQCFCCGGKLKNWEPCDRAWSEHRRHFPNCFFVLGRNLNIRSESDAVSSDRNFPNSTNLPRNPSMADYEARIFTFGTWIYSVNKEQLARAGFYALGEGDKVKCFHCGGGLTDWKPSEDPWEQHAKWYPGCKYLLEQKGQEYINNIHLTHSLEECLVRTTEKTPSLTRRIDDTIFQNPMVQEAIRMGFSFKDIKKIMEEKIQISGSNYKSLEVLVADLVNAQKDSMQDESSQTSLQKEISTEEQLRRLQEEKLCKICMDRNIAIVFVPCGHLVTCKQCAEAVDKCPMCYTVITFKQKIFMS
SUMO E1/E2, sequence (Q9UBE0 whole entry): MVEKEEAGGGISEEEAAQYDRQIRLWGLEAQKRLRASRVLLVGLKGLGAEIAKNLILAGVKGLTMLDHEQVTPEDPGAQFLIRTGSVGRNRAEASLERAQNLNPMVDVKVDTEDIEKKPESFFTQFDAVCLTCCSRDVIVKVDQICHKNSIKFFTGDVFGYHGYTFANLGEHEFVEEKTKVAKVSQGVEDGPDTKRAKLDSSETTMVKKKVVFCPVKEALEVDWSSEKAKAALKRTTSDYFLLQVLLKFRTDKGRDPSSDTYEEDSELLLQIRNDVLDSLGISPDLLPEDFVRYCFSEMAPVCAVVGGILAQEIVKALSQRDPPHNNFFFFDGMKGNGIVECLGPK
SUMO E1/E2, sequence (Q9UBT2 whole entry): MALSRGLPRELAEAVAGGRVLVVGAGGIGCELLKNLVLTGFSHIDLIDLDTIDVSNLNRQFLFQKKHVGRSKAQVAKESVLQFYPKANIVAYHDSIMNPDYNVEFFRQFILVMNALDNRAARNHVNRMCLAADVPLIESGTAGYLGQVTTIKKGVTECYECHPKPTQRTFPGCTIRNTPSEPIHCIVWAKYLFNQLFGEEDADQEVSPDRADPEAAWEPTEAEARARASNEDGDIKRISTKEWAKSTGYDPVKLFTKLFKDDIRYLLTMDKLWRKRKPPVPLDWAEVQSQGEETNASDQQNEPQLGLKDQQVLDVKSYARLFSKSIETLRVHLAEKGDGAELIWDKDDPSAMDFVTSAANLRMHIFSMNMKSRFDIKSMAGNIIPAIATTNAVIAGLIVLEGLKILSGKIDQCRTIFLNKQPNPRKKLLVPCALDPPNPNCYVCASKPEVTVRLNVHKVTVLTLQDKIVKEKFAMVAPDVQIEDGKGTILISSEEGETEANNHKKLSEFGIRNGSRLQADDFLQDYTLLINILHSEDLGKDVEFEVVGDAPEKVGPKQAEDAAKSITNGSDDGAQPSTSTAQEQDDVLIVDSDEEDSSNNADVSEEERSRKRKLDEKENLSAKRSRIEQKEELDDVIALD
SUMO E1/E2, sequence (P63279 whole entry): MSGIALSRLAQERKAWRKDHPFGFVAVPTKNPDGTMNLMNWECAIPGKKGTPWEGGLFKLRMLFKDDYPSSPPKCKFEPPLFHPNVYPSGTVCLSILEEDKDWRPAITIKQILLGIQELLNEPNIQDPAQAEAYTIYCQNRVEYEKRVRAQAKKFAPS

CCNC(=O)COC(=O)c1cc(-c2ccco2)nc2ccccc12
active: IC50 [1] 33.6 µM | IC50 [2] 4.39 µM | IC50 [3] 2.82 µM | IC50 [4] 13.3 µM | IC50 [5] 18.5 µM | IC50 [6] 2.63 µM

Cc1ccc(-c2cc(C(=O)N/N=C/c3c(C)nn(-c4ccccc4)c3C)[nH]n2)cc1
inconclusive: EC50 [7] 2.09 µM | EC50 [8] 0.624 µM | EC50 [16] 1.28 µM | EC50 [17] 2.04 µM | EC50 [19] 1.75 µM
active: EC50 [9] 0.576 µM | EC50 [10] 0.327 µM | EC50 [11] 10.1 µM | EC50 [12] 7.44 µM | EC50 [13] 14 µM | EC50 [14] 5.9 µM | EC50 [15] 1.01 µM | EC50 [18] 0.603 µM

Cc1cccc(N(C)S(=O)(=O)c2ccc(-c3cc(C)no3)s2)c1
inconclusive: EC50 [7] 33.4 µM | EC50 [16] 1.15 µM | EC50 [19] 6.81 µM
active: EC50 [10] 0.155 µM | EC50 [11] 33.4 µM | EC50 [12] 9.86 µM | EC50 [13] 10.4 µM | EC50 [14] 1.15 µM | EC50 [15] 6.81 µM

CC(C)(Nc1ccccc1)C(=O)c1ccccc1
> 100 µM (not active): IC50 [20]
inactive: IC50 [21] > 100 µM

COc1ccccc1CNC(=O)CNC(=O)c1cc(-c2ccco2)nc2ccccc12
inactive: IC50 [4] > 56.8 µM
active: IC50 [5] 23.3 µM | IC50 [6] 3.37 µM

O=C(NNC(=S)NC(=O)c1cn(-c2ccccc2)nc1-c1ccccc1)c1ccncc1
active: IC50 [22] 2.75 µM | EC50 [23] 0.94 µM | CC50 [24] 24.3 µM | CC50 [25] 10 µM | CC50 [26] > 20 µM | CC50 [27] 13.6 µM | EC50 [28] 0.239 µM | IC50 [29] 24.4 µM
